Series [1] has as its system S. epidermidis ATCC 35984. Nature of the series: time-kill (killing kinetic) assay. In kind it is cell-based. To be noted: Fig 7D.
The test system of series [2] is A. baumannii ATCC 19606. Nature of the series: time-kill (killing kinetic) assay. In kind it is cell-based. Particulars: Fig 7D.
In series [3] the test system is human epidermoid carcinoma cells (A431). In kind it is cell-based. To be noted: 72 h, 100 μM. Here is the method:
(§1) Cell viability remained above 70% even at the highest tested concentrations after 72 h of incubation.

For series [4], the system named is human primary dermal fibroblasts (HDF). In kind it is cell-based. The protocol:
as §1

Series [5] has as its system human immortalized keratinocytes (HaCaT). Type of series: cell-based. Here is the method:
as §1

The subject of series [6] is A. baumannii ATCC 19606. As to the kind of experiment: murine skin abscess infection model. Type of series: in vivo, mouse (female CD-1). To be noted: after 4 days; single topical dose at MIC ([…] μM r(P)YLL19, 32 μM D(P)YLL19) 2 h postinfection; CFU of homogenized skin; n = 6.
Method: Six-week-old female CD-1 mice (Charles River, stock number: 18679700-022) were anesthetized with isoflurane, and the dorsal skin was shaved. A superficial linear abrasion was made using a sterile needle. A 20 μL aliquot of A. baumannii ATCC 19606, grown in LB medium to an optical density at 600 nm (OD600) of 0.5 and then washed twice with sterile PBS (pH 7.4; 9391 g for 2 min), was applied to the abraded area at a final concentration of 3.67 × 10^6 CFU mL^-1. Peptides and antibiotics were diluted in sterile water to their respective MICs and topically applied to the infection site 2 h postinfection. Untreated control mice received 20 μL of sterile PBS. At 2 and 4 days postinfection, animals were euthanized, and the wounded infected skin area was aseptically and uniformly excised. Tissue was homogenized using a bead beater (25 Hz for 20 min), serially diluted 10-fold, and plated on MacConkey agar plates for CFU quantification. Each treatment group included six mice (n = 6), with mice housed individually to prevent cross-contamination. […] Two independent experiments were conducted, each with 3 mice per treatment group. Statistical significance was assessed using one-way ANOVA followed by Dunnett's post hoc test after log10 transformation of CFU counts.
In series [7] the test system is sheep red blood cells (SRBCs).

Molecules are shown by their SMILES. Square brackets hold non-standard residues; d marks the D form. Peptide text beside a SMILES is read from it.

For `CC[C@@H](C)[C@@H](NC(=O)[C@@H](CCCNC(=N)N)NC(=O)[C@@H](Cc1ccccc1)NC(=O)[C@H](NC(=O)[C@@H](CC(C)C)NC(=O)[C@@H](Cc1c[nH]cn1)NC(=O)[C@@H](CCCCN)NC(=O)[C@@H](CCCCN)NC(=O)[C@@H](CCCNC(=N)N)NC(=O)[C@@H](Cc1c[nH]c2ccccc12)NC(=O)[C@@H](CCCNC(=N)N)NC(=O)CNC(=O)[C@@H](CC(C)C)NC(=O)[C@@H](CC(C)C)NC(=O)[C@@H](CC(C)C)NC(=O)[C@@H](Cc1ccc(O)cc1)NC(=O)[C@H]1CCCN1)[C@H](C)O)C(=O)N[C@H](CC(C)C)C(=O)N[C@H](CC(N)=O)C(=O)N[C@H](CC(C)C)C(=O)O` [D(P)YLL19] (H-[dP][dY][dL][dL][dL]G[dR][dW][dR][dK][dK][dH][dL][dT][dF][dR][dI][dL][dN][dL]-OH; N-terminus and C-terminus assumed), the “time to complete bacterial eradication, peptide combined with colistin or polymyxin B” value in series [1] is on record as at most 15 min. Further, the “time to complete bacterial eradication, peptide combined with colistin” value in the series with A. baumannii ATCC 19606 [2] is reported as at most 15 min. Moreover, the cell viability entry in series [3] is reported as “above 70%”; in series [4] (72 h, 100 μM), “above 70%”; in series [5] (72 h, 100 μM), “above 70%”. Moreover, the reduction in viability in series [4] and in series [5] was 25–30% in each case. The “reduction in bacterial burden” value in the series with A. baumannii ATCC 19606 [6] is 3 to 4 orders of magnitude. Further, the hemolytic activity result in series [7] is “no hemolytic activity”.

These data come from article PMC12848717, “Discovery of Encrypted Peptides in a Human Matrix Metallopeptidase” (JACS Au, 2025).
